Values of other authors as cited in patent US20170080049A1, “MEDICINE AGAINST GROWTH FAILURE INDUCED BY ADMINISTRATION OF STEROID” (DAIICHI SANKYO COMPANY, LIMITED, priority 2014, published 2017).
Positions of bridges follow the written chain, without caps; N, C: chain ends. No end group written: not given here.

How the values were obtained:
normal mice = settings: continuous intravenous administration, normal mice (Non Patent Literature 9, 10); cited from earlier work
NPR-B = target: T1, NPR-B (Homo sapiens, UniProt P20594); settings: Furuya et al. 1992; US 2010-305031; cited from earlier work
T1 sequence (P20594 23-1047): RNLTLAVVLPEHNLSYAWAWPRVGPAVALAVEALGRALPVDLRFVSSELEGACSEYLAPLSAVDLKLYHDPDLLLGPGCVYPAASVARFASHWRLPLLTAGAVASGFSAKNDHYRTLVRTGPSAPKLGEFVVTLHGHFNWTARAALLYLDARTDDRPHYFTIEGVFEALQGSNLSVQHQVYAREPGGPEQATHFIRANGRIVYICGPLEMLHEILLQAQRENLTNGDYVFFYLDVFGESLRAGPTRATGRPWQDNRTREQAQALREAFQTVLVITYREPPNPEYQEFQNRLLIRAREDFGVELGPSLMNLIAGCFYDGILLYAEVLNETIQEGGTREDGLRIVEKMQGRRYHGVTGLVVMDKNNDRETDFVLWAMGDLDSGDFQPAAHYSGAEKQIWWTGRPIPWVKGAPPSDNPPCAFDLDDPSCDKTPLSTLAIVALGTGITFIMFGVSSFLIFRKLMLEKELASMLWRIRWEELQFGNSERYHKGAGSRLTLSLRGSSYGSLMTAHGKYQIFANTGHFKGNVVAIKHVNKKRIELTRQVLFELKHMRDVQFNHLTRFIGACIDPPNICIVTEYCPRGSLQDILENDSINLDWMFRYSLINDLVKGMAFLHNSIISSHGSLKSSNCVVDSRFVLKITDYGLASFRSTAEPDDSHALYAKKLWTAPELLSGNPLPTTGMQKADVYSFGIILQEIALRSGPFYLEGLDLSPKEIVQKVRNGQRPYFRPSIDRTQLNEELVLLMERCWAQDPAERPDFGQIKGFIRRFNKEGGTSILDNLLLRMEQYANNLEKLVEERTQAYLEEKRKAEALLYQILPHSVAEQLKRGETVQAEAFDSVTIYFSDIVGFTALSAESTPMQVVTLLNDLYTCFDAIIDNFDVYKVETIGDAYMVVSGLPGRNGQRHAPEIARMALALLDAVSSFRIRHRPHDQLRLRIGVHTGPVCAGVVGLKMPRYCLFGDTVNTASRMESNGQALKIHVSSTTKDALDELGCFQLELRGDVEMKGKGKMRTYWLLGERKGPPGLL

Row | Substance | elongation of bone (in words) (normal mice) | NPR-B agonist activity compared with hCNP-22 (in words) (NPR-B)
1 | CNP-22: human-derived CNP-22 consisting of 22 amino acids, GLSKGCFGLK LDRIGSMSGL GC (GLSKGCFGLKLDRIGSMSGLGC) | promoted | 
2 | CNP6-22: peptide consisting of only the ring structure (amino acid Nos. 6 to 22 of SEQ ID NO: 1) (CFGLKLDRIGSMSGLGC; disulfide 1-17 (inferred)) |  | almost the same NPR-B agonist activity as that of hCNP-22
